Results reported in US20230000808A1, “COMPOSITIONS AND METHODS EXCLUDING OR WITH REDUCED GLUTAMINE FOR THE TREATMENT OF HEMOGLOBINOPATHIES AND THALASSEMIAS” (AXCELLA HEALTH INC., priority 2019, published 2023).

Columns and labels:
[1] = test system: RBCs of healthy whole blood; assay: RBC deformability (Elongation Index, LORRCA ektacytometry), ex vivo TBHP oxidation of healthy whole blood; assay type: cell-based, human; conditions: healthy donor 2, single amino acid treatments
Text: Whole blood from healthy African American and/or Hispanic donors was obtained from Research Blood Components, LLC based on the following donor selection criteria: Adult age (between 18 and 50 years), normal BMI (<30), and absence of other confounding clinical conditions. Whole blood from SCD donors were obtained from BioIVT based on the following donor selection criteria: Patients with genotypes HbSS, HbSC, HbS/β^0 and at least 1-2 months gap since last blood transfusion. Whole blood was shipped on ice on the same day as blood draw. Upon receipt, the blood sample was aliquoted and stored in the refrigerator until used for studies.
RBC deformability measurements were conducted with the Laser Optical Rotational Red Cell Analyzer (LORRCA) from RR Mechatronics in a temperature-controlled environment (37° C.). Briefly, an even layer of RBCs suspended in polyvinylpyrrolidone (PVP) is subjected to shear stress gradient (0.3 to 30 Pa) through two concentric cylinders and the resulting changes in RBC shape or deformability are measured by a laser beam diffraction pattern. The captured images of RBC shape in response to increasing shear stress are then analyzed by the LORRCA program to calculate Elongation Index (EI).
Healthy RBCs have higher deformability ≥0.5 EI and SCD RBCs have lower deformability or EI values as studied by LORRCA ektacytometry in the field. […] The induced hemolysis model in this disclosure involves use of tert-butyl hydroperoxide (TBHP) to lower EI of RBCs.
The ex vivo hemolysis study disclosed here involves overnight treatment of whole blood with vehicle as a control and specific amino acids followed by rapid oxidation (5 min) with TBHP. Method for oxidation of whole blood with tert-butyl hydroperoxide has been used in prior literature (Diederich L, et al, Front Physiol. 2018 May 11; 9:332). RBC deformability or shape changes are then measured with LORRCA ektacytometry.
Whole blood aliquots stored in the fridge were brought up to room temperature while gently shaking on a rocker at low speed for an hour to ensure gradual and uniform suspension of red blood cells prior to deformability measurements. Vehicle control used in the study was 1× Dulbecco's […]) and amino acids disclosed herein were added (at either final 10× or 2.5 mM concentration as indicated) to corresponding vehicle and amino acid treatment conditions. The samples were then incubated overnight at 37° C. The next day, 25 μl of whole blood was taken from each treatment condition and added to 5 mL Elon ISO viscous solution from RR Mechatronics. The sample was inverted 15-20 times to ensure proper mixing of the treated RBCs with the Elon ISO solution followed by loading the sample on LORRCA and capturing RBC deformability or shape measurements over the applied shear gradient. The remaining whole blood treatments were returned to incubator (37° C.) until deformability measurements were completed for all treatments. To the remaining whole blood treatment samples, TBHP solution (5.0-6.0 M in Decane, Sigma) was added at 2.5 mM final concentration from a 100 mM freshly prepared stock and incubated for further 5 min at 37° C. 25 μl of this TBHP-treated sample was immediately removed at the end of the 5 min incubation and added to the Elon ISO solution for RBC deformability measurement after oxidation. Included in the Tables 13-15 are EI measurements at ½ EImax shear stress 1.69 Pa and EImax shear stress 30 Pa from these studies and FIG. 1 captures EI measurements for all shear stress points for the indicated treatment conditions.

[2] = Pharmacokinetics following oral dose administration to male Sprague-Dawley rats (plasma amino acids, LC-MS); conditions: analyte after oral gavage of RCitNacQCarLHKVS
Protocol: A pharmacokinetic (PK) analysis was performed on plasma concentrations of various combinations of amino acid compounds administered by oral gavage to male Sprague-Dawley rats. Four animals were dosed with RCitNacQCarLHKVS, a test article comprising ten amino acid components: arginine, citrulline, N-acetylcysteine (Nac), glutamine, carnitine, leucine, histidine, lysine, valine, and serine (Table 19). Animals were fasted for 2 hours prior to dose administration. Plasma samples were taken immediately pre-dose and 0.5, 1, 2, 3, 4, and 5 hours post-dose.
Bioanalysis of collected plasma samples for amino acid content was performed at Axcella Health using an LC-MS method (Section 2.1). Bioanalytical data were analyzed using noncompartmental analysis with PHOENIX® WINNONLIN® (v8.1).
An LC/MS method utilizing HILIC chromatography and high-resolution mass spectrometry was used to quantify amino acids in rat plasma. […]
PK parameters of test article components were determined from individual rat plasma concentration-time data by employing a noncompartmental approach using Phoenix WINNONLIN® (Version 8.1) software. […] This program analyzed data using the standard methods described by Gibaldi and Perrier (see M. Gibaldi and D. Perrier, Pharmacokinetics, 2nd edition, New York: Marcel-Dekker, Inc.; 1982.).

IL-6 = assay: Secreted IL-6 in HLMVEC treated with TNF-α (FirePlex); assay type: cell-based, human; conditions: HLMVEC + 0.5 ng/mL TNF-α, 24 h; amino acids 20x HMDB, Nac/Cit/Car 5 mM as bracketed
Protocol: (§1) Primary Human Lung Microvascular Endothelial Cells (HLMVEC; Lonza) were seeded at 6,000 cells per well in Endothelial Cell Growth Basal Medium-2 (Lonza) supplemented with Fetal Bovine Serum (FBS; Lonza), human EGF (Lonza), human VEGF (Lonza), R3-Insulin-like Growth Factor-1 (Lonza), ascorbic acid (Lonza), hydrocortisone (Lonza), human FGF-beta (Lonza), and gentamicin/amphotericin-b (Lonza) in a 96-well plate (Thermo Fisher). The cells were incubated for 45 minutes at room temperature, then incubated overnight at 37° C./5% CO2.
(§2) Following overnight incubation, cell were washed once with 150 μL of Dulbecco's phosphate buffered saline (DPBS; Gibco), and then treated with Endothelial Basal Medium MCB-131 (amino acid, glucose, sodium pyruvate, and phenol red free; US Biologicals) containing a defined custom amino acid concentration based on physiological concentrations in blood of patients with SCD (thus recapitulating observed metabolic imbalances such as the depletion of certain essential amino acids including arginine and aspartate and enrichment of certain non-essential amino acids including glutamate and asparagine), dialyzed FBS (Hyclone), human EGF (Lonza), human VEGF (Lonza), R3-Insulin-like Growth Factor-1 (Lonza), ascorbic acid (Lonza), hydrocortisone (Lonza), human FGF-beta (Lonza), and gentamicin/amphotericin-b (Lonza), glucose, 10 mM HEPES, sodium pyruvate, and sodium bicarbonate supplemented with one of the following: • a. PBS (vehicle control), • b. 0.5 ng/mL Tumor Necrosis Factor alpha (TNFα) and PBS, or; • c. 0.5 ng/mL TNF-α and amino acid treatments at 20× mean physiological concentrations in plasma based on values published in the Human Metabolome Database (HMDB) in PBS.
Supernatants were analyzed for IL-6 concentrations using a Human Cytokines FirePlex-HT Panel 1 kit (abcam) according to the manufacturer-supplied instructions. Particles were imaged on a high content imager (Molecular Devices), and results were interpolated from a standard curve with FirePlex Analysis Workbench Software (abcam) according manufacturer's recommendations.

VCAM-1 = VCAM-1 cell integrated intensity in HLMVEC treated with TNF-α (immunofluorescence); assay type: cell-based, human
Protocol: as §1, §2
(§3) After 24 hours of treatment, cells were washed once with 150 μL of DPBS (Gibco), then fixed with 4% paraformaldehyde. Following fixation, cells were stained with anti-ICAM-1 [MEM-111] (mouse IgG2a anti-human; abcam) and anti-VCAM1 [1.4C3] (mouse IgG1, K anti-human; abcam) primary antibodies at 1000×, and 100× dilutions respectively. Cells were then stained with Goat anti-Mouse IgG2a Cross-Adsorbed Secondary Antibody, Alexa Fluor 594 (Invitrogen) and Goat anti-Mouse IgG1 Cross-Adsorbed Secondary Antibody, Alexa Fluor 647 (Invitrogen) secondary antibodies. Nuclei were stained with Hoechst 3342 (Life Technologies).
(§4) Antibody binding was detected by fluorescence microscopy using a high content imager (Molecular Devices). Images were analyzed using MetaXpress 6 software to determine the integrated intensity per cell for each wavelength corresponding to ICAM-1 or VCAM-1.

ICAM-1 = ICAM-1 cell integrated intensity in HLMVEC treated with TNF-α (immunofluorescence); assay type: cell-based, human; conditions: HLMVEC + 0.5 ng/mL TNF-α, 24 h; amino acids 20x HMDB, Nac/Cit/Car 5 mM as bracketed
Protocol: as §1, §2, §3, §4

HLMVEC = assay: META-rank score, composite of VCAM1, ICAM1 and IL6 in the HLMVEC model; assay type: cell-based, human; conditions: HLMVEC + TNF-α; lower score = more optimal; 20x HMDB / 5 mM
Protocol: The ability of single amino acids and combinations to simultaneously impact these phenotypes was measured by a META-rank score (Tables 17 and 18). META-rank score is a composite measure that considers the optimal impact on all 3 phenotypes (e.g. decrease VCAM1, ICAM1, and IL6) in the HLMVEC model.

C[N+](C)(C)CC(O)CC(=O)[O-] (centres unmarked) [Car, carnitine]
EI over vehicle control, both ½ EImax and EImax [1]: higher than the vehicle
plasma concentration over the five-hour time course [2]: continuously increased
Secreted IL6 Median (IL-6): −0.022
VCAM-1 expression in HLMVEC (VCAM-1; 0.5 ng/mL TNF-α, amino acids at 20× HMDB, 24 hours): moderate effect
VCAM-1 Cell Integrated Intensity Median (VCAM-1; HLMVEC + 0.5 ng/mL TNF-α, 24 h, amino acids 20x HMDB, Nac/Cit/Car 5 mM as bracketed): −0.017
ICAM-1 Cell Integrated Intensity Median (ICAM-1): −0.013
Meta-Rank (Table 18) (HLMVEC): 12.5
Metarank (Table 17) (HLMVEC): 24
